Drawing on patent US9029359B2, “Heteroaryl Btk inhibitors” (Biogen Idec MA, Inc., priority 2009, dated 2015), this text covers IC50 for 32 compounds.

T1 sequence (Q06187 whole entry): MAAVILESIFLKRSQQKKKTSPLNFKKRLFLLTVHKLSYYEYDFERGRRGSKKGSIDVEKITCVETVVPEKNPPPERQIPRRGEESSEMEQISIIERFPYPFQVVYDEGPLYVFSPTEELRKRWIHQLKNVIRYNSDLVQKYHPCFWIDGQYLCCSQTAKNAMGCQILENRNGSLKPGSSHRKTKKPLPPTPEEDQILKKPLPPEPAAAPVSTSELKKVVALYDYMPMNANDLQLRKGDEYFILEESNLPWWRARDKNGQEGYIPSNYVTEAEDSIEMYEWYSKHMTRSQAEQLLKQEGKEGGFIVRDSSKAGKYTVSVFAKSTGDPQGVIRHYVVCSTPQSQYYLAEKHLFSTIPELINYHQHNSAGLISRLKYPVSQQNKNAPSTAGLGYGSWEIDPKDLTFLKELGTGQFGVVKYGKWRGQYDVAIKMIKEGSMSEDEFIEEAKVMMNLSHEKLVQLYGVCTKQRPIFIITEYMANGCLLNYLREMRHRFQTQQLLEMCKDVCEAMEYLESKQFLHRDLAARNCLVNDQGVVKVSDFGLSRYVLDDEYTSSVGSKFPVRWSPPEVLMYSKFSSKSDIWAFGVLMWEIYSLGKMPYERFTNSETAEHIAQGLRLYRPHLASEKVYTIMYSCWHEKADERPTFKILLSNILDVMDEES

This assay addresses T1, BTK (Homo sapiens, UniProt Q06187).
T1 construct: purchased Upstate 14-552
The assay can be described thus: In vitro BTK kinase assay: BTK-POLYGAT-LS ASSAY. Type of assay: biochemical. Particulars: ATP 10 uM. The gist of the method: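 BTK phosphorylation of polyGAT (100 nM final) with ATP at 10 μM final, 10 mM Tris-HCl pH 7.5 kinase buffer, quenched by EDTA after 30 min. Potency given as IC50.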
For `CC(C)[C@@H](Nc1ccccc1)C(=O)N[C@@H]1CCCN(c2ncnc3[nH]ccc23)C1` [Example 103, (R)—N—((R)-1-(7H-pyrrolo[2,3-d]pyrimidin-4-yl)piperidin-3-yl)-3-methyl-2-(phenylamino)butanamide], the IC50 (as a rule, the point on the concentration scale where inhibition reaches its midpoint) lay within 0.1 to 0.999 µM.

`O=C(N[C@@H]1CCCN(c2ncnc3[nH]ccc23)C1)[C@@H](Cc1ccccc1)Nc1ccccc1` [Example 104, (R)—N—((R)-1-(7H-pyrrolo[2,3-d]pyrimidin-4-yl)piperidin-3-yl)-3-phenyl-2-(phenylamino)propanamide] gave an IC50 of 1 to 10 µM.

`CC(C)C[C@@H](Nc1ccccc1)C(=O)N[C@@H]1CCCN(c2ncnc3[nH]ccc23)C1` [Example 105, (R)—N—((R)-1-(7H-pyrrolo[2,3-d]pyrimidin-4-yl)piperidin-3-yl)-4-methyl-2-(phenylamino)pentanamide] had an IC50 of 1 to 10 µM.

Compound `O=C(N[C@@H]1CCCN(c2ncnc3[nH]ccc23)C1)[C@H](Nc1ccccc1)c1ccccc1` [Example 106, (R)—N—((R)-1-(7H-pyrrolo[2,3-d]pyrimidin-4-yl)piperidin-3-yl)-2-phenyl-2-(phenylamino)acetamide] had an IC50 of more than 10 µM.

For `O=C(N[C@@H]1CCCN(c2ncnc3[nH]ccc23)C1)[C@H](Nc1ccccc1)C1CC1` [Example 107, (R)—N—((R)-1-(7H-pyrrolo[2,3-d]pyrimidin-4-yl)piperidin-3-yl)-2-cyclopropyl-2-(phenylamino)acetamide], the IC50 is less than 0.1 µM.

As for `CC(C)(C)[C@@H](Nc1ccccc1)C(=O)N[C@@H]1CCCN(c2ncnc3[nH]ccc23)C1` [Example 108, (R)—N—((R)-1-(7H-pyrrolo[2,3-d]pyrimidin-4-yl)piperidin-3-yl)-3,3-dimethyl-2-(phenylamino)butanamide], the IC50 is 0.1 to 0.999 µM.

On to `O=C(N[C@@H]1CCCN(c2ncnc3[nH]ccc23)C1)[C@H](Nc1ccccc1)C1CCCCC1` [Example 109, (R)—N—((R)-1-(7H-pyrrolo[2,3-d]pyrimidin-4-yl)piperidin-3-yl)-2-cyclohexyl-2-(phenylamino)acetamide], for which the IC50 fell in the range of 1 to 10 µM.

Take `C[C@@H](O)[C@@H](Nc1ccccc1)C(=O)N[C@@H]1CCCN(c2ncnc3[nH]ccc23)C1` [Example 110, (2R,3R)—N—((R)-1-(7H-pyrrolo[2,3-d]pyrimidin-4-yl)piperidin-3-yl)-3-hydroxy-2-(phenylamino)butanamide]: the IC50 is 0.1 to 0.999 µM.

For `C[C@H](O)[C@@H](Nc1ccccc1)C(=O)N[C@@H]1CCCN(c2ncnc3[nH]ccc23)C1` [Example 111, (2R,3S)—N—((R)-1-(7H-pyrrolo[2,3-d]pyrimidin-4-yl)piperidin-3-yl)-3-hydroxy-2-(phenylamino)butanamide], the IC50 lay in the range of 0.1 to 0.999 µM.

On to `CC(C)[C@@H](Nc1cccc(Cl)c1)C(=O)N[C@@H]1CCCN(c2ncnc3[nH]ccc23)C1` [Example 112, (R)—N—((R)-1-(7H-pyrrolo[2,3-d]pyrimidin-4-yl)piperidin-3-yl)-2-(3-chlorophenylamino)-3-methylbutanamide], for which the IC50 is less than 0.1 µM.

Take `CC[C@@H](Nc1ccccc1)C(=O)N[C@@H]1CCCN(c2ncnc3[nH]ccc23)C1` [Example 114, (R)—N—((R)-1-(7H-pyrrolo[2,3-d]pyrimidin-4-yl)piperidin-3-yl)-2-(phenylamino)butanamide]: the IC50 was less than 0.1 µM.

For `CC[C@H](C)[C@@H](Nc1ccccc1)C(=O)N[C@@H]1CCCN(c2ncnc3[nH]ccc23)C1` [Example 115, (2R,3S)—N—((R)-1-(7H-pyrrolo[2,3-d]pyrimidin-4-yl)piperidin-3-yl)-3-methyl-2-(phenylamino)pentanamide], the IC50 was 0.1 to 0.999 µM.

The compound `CS(=O)(=O)CC[C@@H](Nc1ccccc1)C(=O)N[C@@H]1CCCN(c2ncnc3[nH]ccc23)C1` [Example 116, (R)—N—((R)-1-(7H-pyrrolo[2,3-d]pyrimidin-4-yl)piperidin-3-yl)-4-(methylsulfonyl)-2-(phenylamino)butanamide] displayed an IC50 of 1 to 10 µM.

Regarding `CC[C@@H](C)[C@@H](Nc1ccccc1)C(=O)N[C@@H]1CCCN(c2ncnc3[nH]ccc23)C1` [Example 117, (2R,3R)—N—((R)-1-(7H-pyrrolo[2,3-d]pyrimidin-4-yl)piperidin-3-yl)-3-methyl-2-(phenylamino)pentanamide], the IC50 fell in the range of 0.1 to 0.999 µM.

In turn, `O=C(N[C@@H]1CCCN(c2ncnc3[nH]ccc23)C1)[C@H](Nc1cccc(Cl)c1)C1CC1` [Example 119, (R)—N—((R)-1-(7H-pyrrolo[2,3-d]pyrimidin-4-yl)piperidin-3-yl)-2-(3-chlorophenylamino)-2-cyclopropylacetamide] returned an IC50 of less than 0.1 µM.

`O=C(N[C@@H]1CCCN(c2ncnc3[nH]ccc23)C1)[C@H](Nc1cc(F)cc(F)c1)C1CC1` [Example 120, (R)—N—((R)-1-(7H-pyrrolo[2,3-d]pyrimidin-4-yl)piperidin-3-yl)-2-cyclopropyl-2-(3,5-difluorophenylamino)acetamide]: the IC50 is less than 0.1 µM.

`O=C(N[C@@H]1CCCN(c2ncnc3[nH]ccc23)C1)[C@H](Nc1cc(F)cc(C(F)(F)F)c1)C1CC1` [Example 121, (R)—N—((R)-1-(7H-pyrrolo[2,3-d]pyrimidin-4-yl)piperidin-3-yl)-2-cyclopropyl-2-(3-fluoro-5-(trifluoromethyl)phenylamino)acetamide] displayed an IC50 of less than 0.1 µM.

With `CC(C)CC[C@@H](Nc1ccccc1)C(=O)N[C@@H]1CCCN(c2ncnc3[nH]ccc23)C1` [Example 122, (R)—N—((R)-1-(7H-pyrrolo[2,3-d]pyrimidin-4-yl)piperidin-3-yl)-5-methyl-2-(phenylamino)hexanamide], the IC50 lay within 1 to 10 µM.

For the compound `O=C(N[C@@H]1CCCN(c2ncnc3[nH]ccc23)C1)C(CC(F)(F)F)Nc1ccccc1` (stereo partly drawn) [Example 123, (N—((R)-1-(7H-pyrrolo[2,3-d]pyrimidin-4-yl)piperidin-3-yl)-4,4,4-trifluoro-2-(phenylamino)butanamide)], the IC50 was 1 to 10 µM.

Turning to `CC(C)(C)[C@@H](Nc1cc(F)cc(Cl)c1)C(=O)N[C@@H]1CCCN(c2ncnc3[nH]ccc23)C1` [Example 124, (R)—N—((R)-1-(7H-pyrrolo[2,3-d]pyrimidin-4-yl)piperidin-3-yl)-2-(3-chloro-5-fluorophenylamino)-3,3-dimethylbutanamide], the IC50 was less than 0.1 µM.

`O=C(N[C@@H]1CCCN(c2ncnc3[nH]ccc23)C1)C1(Nc2ccccc2)CC1` [Example 126, (R)—N-(1-(7H-pyrrolo[2,3-d]pyrimidin-4-yl)piperidin-3-yl)-1-(phenylamino)cyclopropanecarboxamide] gave an IC50 of 1 to 10 µM.

As for `O=C(N[C@@H]1CCCN(c2ncnc3[nH]ccc23)C1)C1(Nc2ccccc2)CCCC1` [Example 127, (R)—N-(1-(7H-pyrrolo[2,3-d]pyrimidin-4-yl)piperidin-3-yl)-1-(phenylamino)cyclopentanecarboxamide], the IC50 was in the range of 1 to 10 µM.

Turning to `CC(C)(Nc1ccccc1)C(=O)N[C@@H]1CCCN(c2ncnc3[nH]ccc23)C1` [Example 128, (R)—N-(1-(7H-pyrrolo[2,3-d]pyrimidin-4-yl)piperidin-3-yl)-2-methyl-2-(phenylamino)propanamide], the IC50 lay within 1 to 10 µM.

Compound `CC[C@@H](Nc1cc(F)cc(Cl)c1)C(=O)N[C@@H]1CCCN(c2ncnc3[nH]ncc23)C1` [Example 129, (R)—N—((R)-1-(1H-pyrazolo[3,4-d]pyrimidin-4-yl)piperidin-3-yl)-2-(3-chloro-5-fluorophenylamino)butanamide] had an IC50 of less than 0.1 µM.

The compound `CC[C@@H](Nc1cc(Cl)cc(Cl)c1)C(=O)N[C@@H]1CCCN(c2ncnc3[nH]ncc23)C1` [Example 130, (R)—N—((R)-1-(1H-pyrazolo[3,4-d]pyrimidin-4-yl)piperidin-3-yl)-2-(3,5-dichlorophenylamino)butanamide] returned an IC50 of less than 0.1 µM.

Consider `CC[C@@H](Nc1cccc(Cl)c1)C(=O)N[C@@H]1CCCN(c2ncnc3[nH]ncc23)C1` [Example 131, (R)—N—((R)-1-(1H-pyrazolo[3,4-d]pyrimidin-4-yl)piperidin-3-yl)-2-(3-chlorophenylamino)butanamide], for which the IC50 is less than 0.1 µM.

The compound `O=C(N[C@@H]1CCCN(c2ncnc3[nH]ccc23)C1)[C@@H](CC1CC1)Nc1cc(Cl)cc(Cl)c1` [Example 132, (R)—N—((R)-1-(7H-pyrrolo[2,3-d]pyrimidin-4-yl)piperidin-3-yl)-3-cyclopropyl-2-(3,5-dichlorophenylamino)propanamide] yielded an IC50 of 0.1 to 0.999 µM.

Take `N#Cc1c(N)ncnc1N1CCC[C@@H](NC(=O)[C@H](Nc2cc(F)cc(Cl)c2)C2CC2)C1` [Example 134, (R)—N—((R)-1-(6-amino-5-cyanopyrimidin-4-yl)piperidin-3-yl)-2-(3-chloro-5-fluorophenylamino)-2-cyclopropylacetamide]: the IC50 is 1 to 10 µM.

`O=C1CCc2c(ncnc2N2CCC[C@@H](NC(=O)[C@H](Nc3cc(F)cc(Cl)c3)C3CC3)C2)N1` [Example 135, (R)-2-(3-chloro-5-fluorophenylamino)-2-cyclopropyl-N—((R)-1-(7-oxo-5,6,7,8-tetrahydropyrido[2,3-d]pyrimidin-4-yl)piperidin-3-yl)acetamide] showed an IC50 of 0.1 to 0.999 µM.

As for `Cn1ccc2c(N3CCC[C@@H](NC(=O)[C@H](Nc4cc(F)cc(Cl)c4)C4CC4)C3)ncnc21` [Example 136, (R)-2-(3-chloro-5-fluorophenylamino)-2-cyclopropyl-N—((R)-1-(7-methyl-7H-pyrrolo[2,3-d]pyrimidin-4-yl)piperidin-3-yl)acetamide], the IC50 fell in the range of 0.1 to 0.999 µM.

As to `Cn1ncc2c(N3CCC[C@@H](NC(=O)[C@H](Nc4cc(F)cc(Cl)c4)C4CC4)C3)ncnc21` [Example 137, (R)-2-(3-chloro-5-fluorophenylamino)-2-cyclopropyl-N—((R)-1-(1-methyl-1H-pyrazolo[3,4-d]pyrimidin-4-yl)piperidin-3-yl)acetamide], the IC50 lay within 1 to 10 µM.

In turn, `O=C(N[C@@H]1CCCN(c2ncnc3[nH]cc(F)c23)C1)[C@H](Nc1cc(F)cc(Cl)c1)C1CC1` [Example 138, (R)-2-(3-chloro-5-fluorophenylamino)-2-cyclopropyl-N—((R)-1-(5-fluoro-7H-pyrrolo[2,3-d]pyrimidin-4-yl)piperidin-3-yl)acetamide] showed an IC50 of 0.1 to 0.999 µM.
